Results on two compounds are retold here after publication PMC11847541, “Liver fatty acid binding protein FABP1 transfers substrates to cytochrome P450 4A11 for catalysis” (The Journal of Biological Chemistry, 2025).

The target in the test is T1, P450 4A11 (Homo sapiens, UniProt Q02928).
T1 sequence (Q02928 5-519): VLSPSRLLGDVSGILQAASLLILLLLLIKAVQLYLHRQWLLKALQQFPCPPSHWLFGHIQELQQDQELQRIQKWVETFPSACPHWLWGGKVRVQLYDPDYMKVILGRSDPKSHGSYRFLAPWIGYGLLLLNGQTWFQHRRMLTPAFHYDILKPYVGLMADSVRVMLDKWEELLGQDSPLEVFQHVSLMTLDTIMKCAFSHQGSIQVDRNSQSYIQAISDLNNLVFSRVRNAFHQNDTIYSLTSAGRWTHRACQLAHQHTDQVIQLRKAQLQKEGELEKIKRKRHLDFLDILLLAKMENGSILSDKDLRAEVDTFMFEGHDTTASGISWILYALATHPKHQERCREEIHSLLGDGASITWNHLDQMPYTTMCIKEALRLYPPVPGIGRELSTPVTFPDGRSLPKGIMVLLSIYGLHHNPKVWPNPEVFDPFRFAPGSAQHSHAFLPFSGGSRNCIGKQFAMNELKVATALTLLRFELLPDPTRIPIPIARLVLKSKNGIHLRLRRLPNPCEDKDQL
Description: Ketoconazole trap experiment for lipid koff from P450 4A11. It counts as binding. Set-up: made in house; host or cells: E. coli. The procedure: To assess the rates of lipid egress from P450 4A11 (k-1, k-3), lipids were tested in conjunction with the general P450 inhibitor ketoconazole in a “trap experiment” as we have recently described to estimate koff rates for P450–sterol complexes ([27], [28]). P450–lipid complexes were rapidly mixed with ketoconazole, and the spectral shift from 390 nm (substrate bound, type I) to 418 nm (inhibitor bound, type II) P450 was monitored over time (Fig. 9A, progression from blue to red curve). This spectral shift arises from the direct interaction of the azole nitrogen lone pair with the heme iron (forming a hexacoordinated heme species). This experiment is performed with an excess of ketoconazole (100 μM) to facilitate rapid capture of unliganded P450 yielded at the moment of lipid dissociation, such that ketoconazole kon approximates the lipid koff.
(The concentration of lipid added during preincubation reflects the affinity of the complex determined in equilibrium binding titrations; Fig. 8). The first phase of each trace relates to the ketoconazole capture of the unliganded enzyme (the majority–but not all–P450 was substrate bound at equilibrium), and the second phase correlates to the capture of enzyme yielded by the egress of the bound lipid (i.e., estimate of koff). […] The rates extracted for the second phase (koff) were 0.070 ± 0.006 s^−1 (k-3) and 0.20 ± 0.01 s^−1 (k-1), respectively.
Determination of P450 4A11 koff rates with lipids was performed using a ketoconazole “trap” experiment by adapting previously published protocols ([27], [28]). Solutions of (A) ketoconazole (200 μM) and (B) P450 4A11 (4 μM) and either palmitate (20 μM) or 16-OH palmitate (8 μM) were prepared (2 ml each, all in 100 mM potassium phosphate buffer [pH 7.4]) and loaded into the drive syringes of an OLIS stopped-flow spectrophotometer with the same procedure described for the P450 4A11 kon determination (aforementioned). The experiment was initiated by mixing equal volumes of each solution together, and the rate of ketoconazole binding to P450 is given by ΔA418-A390 (displacement of lipid [decrease in A390] because of ketoconazole binding [increase in A418]) and is a maximum value for the rate at which the P450–lipid complex dissociated (koff) (Fig. S14).
Figure S14. Absorbance traces used to determine P450 4A11 palmitate koff rate. The basis of the ketoconazole trap experiment is the spectral transition from substrate-bound (“Type I” shift, A390 (blue trace)) to inhibitor-bound (“Type II” shift, A418 (red trace)) P450 (Fig. 9A). The formation of ketoconazole-bound P450 (inhibitor complex) from palmitate-bound P450 (substrate complex) is over the course of the experiment shown above. The rate of formation of inhibitor-bound P450 is subtracted from the rate of decay of substrate-bound P450, and the resulting plot (Fig. 9D) is fit to a biexponential equation to estimate the dissociation rate (koff) of palmitate from the P450 4A11.

Where [1] appears, read: P450 4A11 2 μM preincubated with lipid, ketoconazole 100 μM.

As for `O=C(O)CCCCCCCCCCCCCCCO` [16-OH Palmitate (C16), 16-hydroxypalmitate], under setting [1], the “first phase rate (k1), ketoconazole capture of unliganded enzyme” value was 1.3 ± 0.4 s⁻¹ and the “second phase rate = koff from P450 4A11” value is given as 0.070 ± 0.006 (k-3) s^−1. Besides, for the setting “calculated from koff and Kd”, the “kon to P450 4A11 (k3)” value is reported as 2.6 × 10^5 (k3) M^−1 s^−1.

Broadly, the koff is the first-order rate constant of dissociation. In the case of `CCCCCCCCCCCCCCCC(=O)O` [Palmitate (C16), palmitate], the “first phase rate (k1), ketoconazole capture of unliganded enzyme” value under setting [1] was 2.9 ± 0.1 s⁻¹. For the same compound, the koff (P450 4A11 2 μM preincubated with lipid, ketoconazole 100 μM, read-out: second phase rate = koff from P450 4A11) was 0.2 ± 0.01 s⁻¹. Also, the Kd (quotient of experimentally determined rates, read-out: Kd estimate for P450 4A11 as koff/kon) is 4.8 µM.
